Data as given in US8563562B2, “Compounds having antiviral properties” (priority 2008, dated 2013).

Columns and labels:
Type in all cases: cell-based
[1] = test system: HIV variant G140S/Q148H integrase; assay: PhenoScreen (Phenosense) assay, single-round luciferase pseudotyped HIV; details: Human immunodeficiency virus 1, read-out: Activity, Phenosense assay, G140S Q148H
Source text: (§1) Monogram Bioscience' PhenoScreen assay allows the evaluation of integrase inhibitors for activity against a variety of HIV variants. The assay uses virus generated from 2 DNA constructs; one containing the HIV LTR, gag and pol regions, as well as a luciferase reporter gene in place of the viral envelope genes, and a second DNA construct containing the amphotrophic murine leukemia virus (A-MLV) envelope gene required to pseudotype virions and render them capable of entry into a target cell. Viruses generated using these constructs by transfection into a producer cell line such as 293T are capable of one-round of infection only. Successful integration events are directly proportional to the levels of luciferase expression 48 h after infection.
(§2) The viral variants chosen by the present inventors to screen integration inhibitors consist of mutations within the viral integrase enzyme known to confer resistance to a number of known integration inhibitors published in the literature. In particular, the viral variants containing the Q148H/G140S double mutation in integrase, and the N155H/E92Q double mutation in integrase, represent two of the more common viruses identified to arise in patients that are failing treatment with Isentress (Raltegravir, MK-0518).

[2] = test system: HIV variant T661/S153Y integrase; assay: as above; details: Human immunodeficiency virus 1, read-out: Activity, Phenosense assay, T661 S153Y
Source text: as §1, §2

HIV WT integrase = assay: as above; details: Human immunodeficiency virus 1, read-out: Activity, Phenosense assay, WT
Source text: as §1, §2

[3] = test system: HIV variant T125K/F121Y integrase; assay: as above; details: Human immunodeficiency virus 1, read-out: Activity, Phenosense assay, T125K F121Y
Source text: as §1, §2

[4] = test system: HIV variant E92Q/N155H integrase; assay: as above; details: Human immunodeficiency virus 1, read-out: Activity, Phenosense assay, E92Q/N155H
Source text: as §1, §2

[5] = test system: HIV variant Y143R integrase; assay: as above; details: Human immunodeficiency virus 1, read-out: Activity, Phenosense assay, Y143R
Source text: as §1, §2

[6] = test system: HIV-1 reporter virus, N155H/E92Q (NHEQ) integrase; assay: Luciferase reporter virus infectivity assay in 293T cells; details: Human immunodeficiency virus 1, HEK-293T, 48 h, read-out: Luciferase assay EC50, NHEQ
Source text: (§3) Infectivity assays using reporter viruses derived from lentiviral vectors capable of a single round of infection were used to determine the activity (EC50) of compounds. The DNA used to generate viruses for infection was the full-length HIV-1 genome which had been envelope-deleted. In addition, a reporter gene (the firefly luciferase gene from Photinus pyralis) was cloned into the nef region of the HIV backbone for ease of assay readout. […]. Culture supernatants containing VSV-G pseudotyped virions were harvested 64 h post transfection, clarified by centrifugation to remove cell debris, and frozen at −70° C. until use.
(§4) HIV integrase was mutated within a shuttle vector (pGEM) containing the majority of the HIV-1 gag and pol sequence using site-directed mutagenesis to generate sequences that are known to confer resistance to published integrase inhibitors. These include but are not limited to mutations such as Q148H/G140S (in table #QHGS), N155H/E92Q (in table #NHEQ), F121Y/T124K (in table FYTK), Y143R (in table #Y143R) and the triple mutant Q148K/G140A/E138A. (in table#QKGAEA). The mutated integrase coding region within the shuttle vector was sequence verified, and then exchanged for the wild-type (WT) coding sequence in the reporter virus DNA backbone.
(§5) 293T cells were plated out at 12000 cells per well in CellView 96-well cell culture plates (Invitrogen) 16 h prior to compound addition. Compounds were preincubated with cells for 4 h at 37° C. prior to the addition of virus sufficient to generate approximately 10000 Luciferase light units (as measured by the Victor Wallace luminometer) upon assaying using the Bright-Glo™ reagent (Promega) according to the manufacturer's instructions at 48 h post infection.

[7] = test system: HIV-1 reporter virus, wild-type (WT) integrase; assay: as above; details: Human immunodeficiency virus 1, HEK-293T, 48 h, read-out: Luciferase assay EC50, WT
Source text: as §3, §4, §5

[8] = test system: HIV-1 reporter virus, Q148H/G140S (QHGS) integrase; assay: as above; details: Human immunodeficiency virus 1, HEK-293T, 48 h, read-out: Luciferase assay EC50, QHGS
Source text: as §3, §4, §5

[9] = test system: HIV-1 reporter virus, Q148K/G140A/E138A (QKGAEA) integrase; assay: as above; details: Human immunodeficiency virus 1, HEK-293T, 48 h, read-out: Luciferase assay EC50, QKGAEA
Source text: as §3, §4, §5

[10] = test system: HIV-1 reporter virus, Y143R integrase; assay: as above; details: Human immunodeficiency virus 1, HEK-293T, 48 h, read-out: Luciferase assay EC50, Y143R
Source text: as §3, §4, §5

SMILES	EC50 [6] [nM]	EC50 [7] [nM]	EC50 [8] [nM]	other results
O=c1c(O)c(-c2ncc(Cc3ccc(Cl)c(Cl)c3)s2)nc2ccc(N3CCOCC3)cn12 [Example 42, 2-[5-(3,4-Dichloro-benzyl)-thiazol-2-yl]-3-hydroxy-7-morpholin-4-yl-pyrido[1,2-a]pyrimidin-4-one]				EC50 [1]: 1000 to 10000 nM; EC50 [2]: 100 to 1000 nM; EC50 (HIV WT integrase): 100 to 1000 nM; EC50 [3]: 100 to 1000 nM; EC50 [4]: 100 to 1000 nM; EC50 [5]: 100 to 1000 nM
O=C(NCc1ccc(F)cc1)c1nc2c(I)cc(N3CCOCC3)cn2c(=O)c1O [Comparative example 3, reference compound]				EC50 [1]: > 10000 nM; EC50 [2]: 1 to 100 nM; EC50 (HIV WT integrase): 1 to 100 nM; EC50 [3]: 1 to 100 nM; EC50 [4]: 1 to 100 nM; EC50 [5]: 1 to 100 nM
CN1CCN(c2cc(N3CCOCC3)cn3c(=O)c(O)c(-c4ncc(Cc5ccc(F)c(Cl)c5)[nH]4)nc23)C1=O [Example 77, 5-(3-chloro-4-fluorobenzyl)-2-(3-hydroxy-9-(3-methyl-2-oxoimidazolidin-1-yl)-7-morpholino-4-oxo-4H-pyrido[1,2-a]pyrimidin-2-yl)-1H-imidazol-3-ium chloride]	1 to 100	1 to 100	100 to 1000	
Cc1ccc2nc(-c3ncc(Cc4ccc(F)cc4)s3)c(O)c(=O)n2c1 [Comparative example 2, reference compound]				EC50 [1]: 1000 to 10000 nM; EC50 [2]: 100 to 1000 nM; EC50 (HIV WT integrase): 100 to 1000 nM; EC50 [3]: 100 to 1000 nM; EC50 [4]: 1000 to 10000 nM; EC50 [5]: 100 to 1000 nM
CN1CCN(c2cc(N3CCOCC3)cn3c(=O)c(O)c(-c4ncc(Cc5ccc(F)c(F)c5)[nH]4)nc23)C1=O [Example 79, 5-(3,4-difluorobenzyl)-2-(3-hydroxy-9-(3-methyl-2-oxoimidazolidin-1-yl)-7-morpholino-4-oxo-4H-pyrido[1,2-a]pyrimidin-2-yl)-1H-imidazol-3-ium chloride]	1 to 100	1 to 100	100 to 1000	
CC(C)N1CCN(c2cc(N3CCOCC3)cn3c(=O)c(O)c(-c4ncc(Cc5ccc(F)cc5)s4)nc23)C1=O [Example 56, 2-[5-(4-Fluoro-benzyl)-thiazol-2-yl]-3-hydroxy-9-(3-isopropyl-2-oxo-imidazolidin-1-yl)-7-morpholin-4-yl-pyrido[1,2-a]pyrimidin-4-one]	1 to 100	1 to 100	1 to 100	EC50 [9]: 1 to 100 nM; EC50 [10]: 1 to 100 nM
O=C(NCc1ccc(Cl)c(Cl)c1)c1nc2ccc(N3CCOCC3)cn2c(=O)c1O [Comparative example 1, reference compound]				EC50 [1]: > 10000 nM; EC50 (HIV WT integrase): 1 to 100 nM; EC50 [4]: > 10000 nM
CN1CCN(c2cc(N(C)C)cn3c(=O)c(O)c(-c4ncc(Cc5ccc(F)cc5)s4)nc23)C1=O [Example 70, 7-Dimethylamino-2-[5-(4-fluoro-benzyl)-thiazol-2-yl]-3-hydroxy-9-(3-methyl-2-oxo-imidazolidin-1-yl)-pyrido[1,2-a]pyrimidin-4-one]	1 to 100	1 to 100	1 to 100	
CC(=O)c1cc(N2CCOCC2)cn2c(=O)c(O)c(-c3ncc(Cc4ccc(F)cc4)s3)nc12 [Example 53, 9-Acetyl-2-[5-(4-fluoro-benzyl)-thiazol-2-yl]-3-hydroxy-7-morpholin-4-yl-pyrido[1,2-a]pyrimidin-4-one]			100 to 1000	
O=C1CCCN1c1cc(N2CCOCC2)cn2c(=O)c(O)c(-c3ncc(Cc4ccc(F)cc4)s3)nc12 [Example 97, 2-[5-(4-Fluoro-benzyl)-thiazol-2-yl]-3-hydroxy-7-morpholin-4-yl-9-(2-oxo-pyrrolidin-1-yl)-pyrido[1,2-a]pyrimidin-4-one]			100 to 1000	
CN1CCN(c2cc(N3CCOCC3)cn3c(=O)c(O)c(-c4ncc(Cc5ccc(F)cc5)[nH]4)nc23)C1=O [Example 109, 5-(4-Fluoro-benzyl)-2-[3-hydroxy-9-(3-methyl-2-oxo-imidazolidin-1-yl)-7-morpholin-4-yl-4-oxo-4H-pyrido[1,2-a]pyrimidin-2-yl]-1H-imidazol-1-ium; chloride]	100 to 1000	1 to 100	100 to 1000	
O=c1c(O)c(-c2ncc(Cc3ccc(F)cc3)[nH]2)nc2c(Br)cc(N3CCOCC3)cn12 [Example 47, 2-(9-Bromo-3-hydroxy-7-morpholin-4-yl-4-oxo-4H-pyrido[1,2-a]pyrimidin-2-yl)-5-(4-fluoro-benzyl)-1H-imidazol-1-ium chloride]			100 to 1000	
O=C1OCCN1c1cc(N2CCOCC2)cn2c(=O)c(O)c(-c3ncc(Cc4ccc(F)cc4)[nH]3)nc12 [Example 87, 5-(4-fluorobenzyl)-2-(3-hydroxy-7-morpholino-4-oxo-9-(2-oxooxazolidin-3-yl)-4H-pyrido[1,2-a]pyrimidin-2-yl)-1H-imidazol-3-ium chloride]			100 to 1000	
O=C1CCCN1c1cc(N2CCOCC2)cn2c(=O)c(O)c(-c3ncc(Cc4ccc(F)cc4)[nH]3)nc12 [Example 83, 5-(4-fluorobenzyl)-2-(3-hydroxy-7-morpholino-4-oxo-9-(2-oxopyrrolidin-1-yl)-4H-pyrido[1,2-a]pyrimidin-2-yl)-1H-imidazol-3-ium chloride]			100 to 1000	
O=c1c(O)c(-c2ncc(Cc3ccc(Cl)c(Cl)c3)s2)nc2c(N3CCCS3(=O)=O)cc(N3CCOCC3)cn12 [Example 108, 2-[5-(3,4-Dichloro-benzyl)-thiazol-2-yl]-9-(1,1-dioxo-116-isothiazolidin-2-yl)-3-hydroxy-7-morpholin-4-yl-pyrido[1,2-a]pyrimidin-4-one]		1 to 100	100 to 1000	
CN1CCN(c2cc(N3CCOCC3)cn3c(=O)c(O)c(-c4ncc(Cc5ccc(F)c(Cl)c5)s4)nc23)C1=O [Example 60, 2-[5-(3-Chloro-4-fluoro-benzyl)-thiazol-2-yl]-3-hydroxy-9-(3-methyl-2-oxo-imidazolidin-1-yl)-7-morpholin-4-yl-pyrido[1,2-a]pyrimidin-4-one]	1 to 100	1 to 100	1 to 100	EC50 [9]: 1 to 100 nM; EC50 [10]: 1 to 100 nM
CN1CCN(c2cc(N3CCOCC3)cn3c(=O)c(O)c(-c4ncc(Cc5ccc(F)cc5)[nH]4)nc23)S1(=O)=O [Example 91, 4-(4-Fluoro-benzyl)-2-[3-hydroxy-9-(5-methyl-1,1-dioxo-116-[1,2,5]thiadiazolidin-2-yl)-7-morpholin-4-yl-4-oxo-4H-pyrido[1,2-a]pyrimidin-2-yl]-3H-imidazol-1-ium; chloride]	1 to 100	1 to 100	1 to 100	
CN1CCN(c2cc(N(C)C)cn3c(=O)c(O)c(-c4ncc(Cc5ccc(F)cc5)[nH]4)nc23)C1=O [Example 72, 2-(7-(dimethylamino)-3-hydroxy-9-(3-methyl-2-oxoimidazolidin-1-yl)-4-oxo-4H-pyrido[1,2-a]pyrimidin-2-yl)-5-(4-fluorobenzyl)-1H-imidazol-3-ium chloride]			100 to 1000	
CN(c1cc(N2CCOCC2)cn2c(=O)c(O)c(-c3ncc(Cc4ccc(F)cc4)[nH]3)nc12)S(C)(=O)=O [Example 95, 5-(4-fluorobenzyl)-2-(3-hydroxy-9-(N-methylmethylsulfonamido)-7-morpholino-4-oxo-4H-pyrido[1,2-a]pyrimidin-2-yl)-1H-imidazol-3-ium chloride]	1 to 100	1 to 100	100 to 1000	
